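Exposure lasted 48 hours, with cells grown in 96-well plates and compounds tested at five concentrations. Here, GI50 denotes the concentration required for 50% inhibition of growth. TGI: concentration producing complete growth inhibition.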
Key:
Assay in all cases: growth of human tumour cells (NCI), 48 h
T-47D breast = system: T-47D breast
NCI-H226 lung = system: NCI-H226 lung
786-0 renal = system: 786-0 renal
MOLT-4 leukemia = system: MOLT-4 leukemia
SK-MEL-28 melanoma = system: SK-MEL-28 melanoma
IGROV1 ovarian = system: IGROV1 ovarian
MALME-3M melanoma = system: MALME-3M melanoma
BT-549 breast = system: BT-549 breast
PC-3 prostate = system: PC-3 prostate
HOP-92 NSCLC = system: HOP-92 NSCLC
MDA-MB-435 = system: MDA-MB-435
HCT-116 colon = system: HCT-116 colon
HCC-2998 colon = system: HCC-2998 colon
SNB-19 CNS = system: SNB-19 CNS
UO-31 renal = system: UO-31 renal
SK-OV-3 ovarian = system: SK-OV-3 ovarian
CCRF-CEM leukemia = system: CCRF-CEM leukemia
DU-145 prostate = system: DU-145 prostate
A549 NSCLC = system: A549 NSCLC
LOX IMVI melanoma = system: LOX IMVI melanoma
K-562 leukemia = system: K-562 leukemia
OVCAR-4 ovarian = system: OVCAR-4 ovarian
SF-539 CNS = system: SF-539 CNS
A498 renal = system: A498 renal
NCI-H23 lung = system: NCI-H23 lung
CAKI-1 renal = system: CAKI-1 renal
NCI-H460 lung = system: NCI-H460 lung
RPMI-8226 leukemia = system: RPMI-8226 leukemia
MCF7 breast = system: MCF7 breast
UACC-62 melanoma = system: UACC-62 melanoma
SF-268 CNS = system: SF-268 CNS
NCI-H522 lung = system: NCI-H522 lung
OVCAR-5 ovarian = system: OVCAR-5 ovarian
KM12 colon = system: KM12 colon
NCI/ADR-RES ovarian = system: NCI/ADR-RES ovarian
RXF 393 renal = system: RXF 393 renal
SW-620 colon = system: SW-620 colon
SK-MEL-2 melanoma = system: SK-MEL-2 melanoma
HCT-15 colon = system: HCT-15 colon
SK-MEL-5 melanoma = system: SK-MEL-5 melanoma
HOP-62 NSCLC = system: HOP-62 NSCLC
SF-295 CNS = system: SF-295 CNS
SR leukemia = system: SR leukemia
COLO 205 colon = system: COLO 205 colon
HS 578T breast = system: HS 578T breast
OVCAR-3 ovarian = system: OVCAR-3 ovarian
SN12C renal = system: SN12C renal
MDA-MB-231 breast = system: MDA-MB-231 breast
SNB-75 CNS = system: SNB-75 CNS
HL-60(TB) leukemia = system: HL-60(TB) leukemia
OVCAR-8 ovarian = system: OVCAR-8 ovarian
HT29 colon = system: HT29 colon
UACC-257 melanoma = system: UACC-257 melanoma
U251 CNS = system: U251 CNS
TK-10 renal = system: TK-10 renal
ACHN renal = system: ACHN renal

SMILES: COc1cc(Nc2ccnc(NCCNc3ccnc4cc(Cl)ccc34)n2)cc(OC)c1
- GI50 (T-47D breast): 1730 nM
- TGI (T-47D breast): 4450 nM
- GI50 (NCI-H226 lung): 2950 nM
- TGI (NCI-H226 lung): 22800 nM
- GI50 (786-0 renal): 1560 nM
- TGI (786-0 renal): 2900 nM
- GI50 (MOLT-4 leukemia): 1840 nM
- TGI (MOLT-4 leukemia): 8900 nM
- GI50 (SK-MEL-28 melanoma): 1760 nM
- TGI (SK-MEL-28 melanoma): 3290 nM
- GI50 (IGROV1 ovarian): 1890 nM
- TGI (IGROV1 ovarian): 5560 nM
- GI50 (MALME-3M melanoma): 1860 nM
- TGI (MALME-3M melanoma): 3690 nM
- GI50 (BT-549 breast): 1860 nM
- TGI (BT-549 breast): 4240 nM
- GI50 (PC-3 prostate): 2510 nM
- TGI (PC-3 prostate): 14400 nM
- GI50 (HOP-92 NSCLC): 811 nM
- TGI (HOP-92 NSCLC): 4450 nM
- GI50 (MDA-MB-435): 1550 nM
- TGI (MDA-MB-435): 2950 nM
- GI50 (HCT-116 colon): 830 nM
- TGI (HCT-116 colon): 2580 nM
- GI50 (HCC-2998 colon): 1750 nM
- TGI (HCC-2998 colon): 3780 nM
- GI50 (SNB-19 CNS): 2380 nM
- TGI (SNB-19 CNS): 8900 nM
- GI50 (UO-31 renal): 1190 nM
- TGI (UO-31 renal): 2810 nM
- GI50 (SK-OV-3 ovarian): 8580 nM
- TGI (SK-OV-3 ovarian): 21000 nM
- GI50 (CCRF-CEM leukemia): 2450 nM
- TGI (CCRF-CEM leukemia): 9690 nM
- GI50 (DU-145 prostate): 4030 nM
- TGI (DU-145 prostate): 15600 nM
- GI50 (A549 NSCLC): 3230 nM
- TGI (A549 NSCLC): 14800 nM
- GI50 (LOX IMVI melanoma): 1470 nM
- TGI (LOX IMVI melanoma): 2970 nM
- GI50 (K-562 leukemia): 843 nM
- TGI (K-562 leukemia): 3820 nM
- GI50 (OVCAR-4 ovarian): 1330 nM
- TGI (OVCAR-4 ovarian): 6560 nM
- GI50 (SF-539 CNS): 1480 nM
- TGI (SF-539 CNS): 2860 nM
- GI50 (A498 renal): 175 nM
- TGI (A498 renal): 2200 nM
- GI50 (NCI-H23 lung): 1860 nM
- TGI (NCI-H23 lung): 14100 nM
- GI50 (CAKI-1 renal): 2170 nM
- TGI (CAKI-1 renal): 6590 nM
- GI50 (NCI-H460 lung): 1450 nM
- TGI (NCI-H460 lung): 5310 nM
- GI50 (RPMI-8226 leukemia): 1410 nM
- TGI (RPMI-8226 leukemia): 4450 nM
- GI50 (MCF7 breast): 1610 nM
- TGI (MCF7 breast): 3970 nM
- GI50 (UACC-62 melanoma): 1600 nM
- TGI (UACC-62 melanoma): 3080 nM
- GI50 (SF-268 CNS): 3100 nM
- TGI (SF-268 CNS): 12500 nM
- GI50 (NCI-H522 lung): 1780 nM
- TGI (NCI-H522 lung): 5190 nM
- GI50 (OVCAR-5 ovarian): 1660 nM
- TGI (OVCAR-5 ovarian): 6270 nM
- GI50 (KM12 colon): 3340 nM
- TGI (KM12 colon): 14200 nM
- GI50 (NCI/ADR-RES ovarian): 3790 nM
- TGI (NCI/ADR-RES ovarian): 16400 nM
- GI50 (RXF 393 renal): 1380 nM
- TGI (RXF 393 renal): 2940 nM
- GI50 (SW-620 colon): 1660 nM
- TGI (SW-620 colon): 4180 nM
- GI50 (SK-MEL-2 melanoma): 1910 nM
- TGI (SK-MEL-2 melanoma): 4180 nM
- GI50 (HCT-15 colon): 1370 nM
- TGI (HCT-15 colon): 3420 nM
- GI50 (SK-MEL-5 melanoma): 1690 nM
- TGI (SK-MEL-5 melanoma): 3240 nM
- GI50 (HOP-62 NSCLC): 2140 nM
- TGI (HOP-62 NSCLC): 8360 nM
- GI50 (SF-295 CNS): 961 nM
- TGI (SF-295 CNS): 2430 nM
- GI50 (SR leukemia): 1650 nM
- TGI (SR leukemia): 6850 nM
- GI50 (COLO 205 colon): 1610 nM
- TGI (COLO 205 colon): 3460 nM
- GI50 (HS 578T breast): 2180 nM
- TGI (HS 578T breast): 5930 nM
- GI50 (OVCAR-3 ovarian): 1890 nM
- TGI (OVCAR-3 ovarian): 5030 nM
- GI50 (SN12C renal): 2190 nM
- TGI (SN12C renal): 12400 nM
- GI50 (MDA-MB-231 breast): 1410 nM
- TGI (MDA-MB-231 breast): 3740 nM
- GI50 (SNB-75 CNS): 1730 nM
- TGI (SNB-75 CNS): 3520 nM
- GI50 (HL-60(TB) leukemia): 2220 nM
- TGI (HL-60(TB) leukemia): 5280 nM
- GI50 (OVCAR-8 ovarian): 2520 nM
- TGI (OVCAR-8 ovarian): 11500 nM
- GI50 (HT29 colon): 588 nM
- TGI (HT29 colon): 3760 nM
- GI50 (UACC-257 melanoma): 1820 nM
- TGI (UACC-257 melanoma): 3870 nM
- GI50 (U251 CNS): 1610 nM
- TGI (U251 CNS): 4270 nM
- GI50 (TK-10 renal): 3720 nM
- TGI (TK-10 renal): 9710 nM
- GI50 (ACHN renal): 1950 nM
- TGI (ACHN renal): 5160 nM

Source: PubChem BioAssay (NCI)
